Experimental data published in paper PMC8316502 (Nature Communications, 2021).
Read-outs that look alike come from different tables or passages of the source.

How the values were obtained:
S. stellulata AepX = assay: Microscale thermophoresis ligand binding of recombinant S. stellulata AepX; design: species or system Stappia stellulata; conditions: for Kd: read-out: Kd (μM) AepX Ss
Protocol: Finally, we determined the substrate specificity of recombinant S. stellulata AepX towards 2AEP and other (alkyl)phosphonates using microscale thermophoresis[53],[54].
Recombinant AepX was over-produced and purified to homogeneity using methods described in[53]. Binding affinity was determined by microscale thermophoresis using a Monolith NT.115 instrument (NanoTemper Technologies GmbT, Germany) following the protocols described in[53],[54]. A detailed protocol is outlined in the Supplementary Materials. […]
pET21a::aepXSs was sequence verified by automated DNA sequencing (Eurofins, Germany) and introduced to E. coli BL21(DE3) for over-production of recombinant AepX with a C-terminal […]
E. coli BL21(DE3) harbouring pET21a::aepXSs was grown in LB broth with 100 µg mL-1 ampicillin in a culture volume of 1 L contained within a 2 L baffled flask. […]
The binding affinity of AepX for phosphonate ligands was determined using Microscale Thermophoresis (MST) with a Monolith NT.115 instrument (NanoTemper Technologies, Germany).
AepX (100 nM) was labelled with 2nd Generation RED-tris-NTA dye (Nanotemper Technologies, Germany) in 20 mM HEPES pH 7.5 with 200 mM NaCl and 0.005% (v/v) Tween-20 (MST buffer) according to the manufacturer’s instructions. […] 4 µL of each protein-ligand mixture was loaded into Monolith NT.115 Premium Capillaries (Nanotemper Technologies, Germany) and thermophoresis was measured at 22 °C for 22 s with 60 % LED power and High MST power. Data from at least two independent titrations were combined and analysed using the MO.Affinity Analysis software version 2.3 (Nanotemper Technologies, Germany), using the early thermophoresis data at 1 – 2.5 seconds in the experiment for analysis. […]
Figure S7. Binding affinities for selected phosphonates by the Stappia stellulata AepX substrate binding protein determined by microscale thermophoresis. […]

[1] = system: Alliiroseovarius crassostreae (DSM 16950); assay: Final growth yield on sole N or P source, DSM 16950; assay type: cell-based
Protocol: (§1) All strains used in this work were axenic. Pseudomonas strains were maintained on Luria Bertani (LB) agar (1.5% w/v) medium at 30 °C. Stappia stellulata and the Roseobacter strains were maintained on Marine Broth agar (1.5% w/v) medium at 30 °C. […] For all growth and proteomics experiments cultures were grown in an adapted minimal A medium[44] using Na-Succinate (20 mM) as the sole carbon source and, where applicable, 10 mM NH4Cl was added as the sole N source. 2AEP and KH2PO4 were added to a final concentration of 100 µM or 1.5 mM as specified in the text and figure legends. Pseudomonas strains were pre-cultured in minimal medium A containing 100 µM Pi and 1.5 mM NH4Cl to ensure adequate growth while minimising the potential for carryover of residual nutrients into experimental cultures. Culture experiments were performed using a FLUOStar Omega 96-well plate reader using Sarstedt 96-well plates incubated at 30°C, shaking at 200 rpm. […] For all other growth and proteomics experiments these marine bacteria were grown in Sea Salts media, with Pi buffer replaced by HEPES buffer. The method used for quantifying extracellular Pi is detailed in the Supplementary Materials.
(§2) Table S1 Final growth yields (mean OD540 ± standard deviation) of Stappia stellulata (DSM 5886), Alliiroseovarius crassostreae (DSM 16950), Alliiroseovarius sediminilitoris (DSM 29439), Thalassobius aestuarii (DSM 15283), and Shimia marina (DSM26895) on 2AEP as sole N or P source with corresponding negative and positive controls. All conditions were performed in triplicate.

[2] = system: Alliiroseovarius sediminilitoris (DSM 29439); assay: Final growth yield on sole N or P source, DSM 29439; assay type: cell-based
Protocol: as §1, §2

Shimia marina (DSM26895) = assay: Final growth yield on sole N or P source, DSM 26895; assay type: cell-based
Protocol: as §1, §2

[3] = system: Thalassobius aestuarii (DSM 15283); assay: Final growth yield on sole N or P source, DSM 15283; assay type: cell-based
Protocol: as §1, §2

[4] = system: Stappia stellulata (DSM 5886); assay: Final growth yield on sole N or P source, DSM 5886; assay type: cell-based
Protocol: as §1, §2

[5] = system: Pseudomonas putida BIRD-1; assay: Growth of P. putida BIRD-1 on 2AEP; assay type: cell-based
Protocol: All strains used in this work were axenic. Pseudomonas strains were maintained on Luria Bertani (LB) agar (1.5% w/v) medium at 30 °C. […] For all growth and proteomics experiments cultures were grown in an adapted minimal A medium[44] using Na-Succinate (20 mM) as the sole carbon source and, where applicable, 10 mM NH4Cl was added as the sole N source. 2AEP and KH2PO4 were added to a final concentration of 100 µM or 1.5 mM as specified in the text and figure legends. Pseudomonas strains were pre-cultured in minimal medium A containing 100 µM Pi and 1.5 mM NH4Cl to ensure adequate growth while minimising the potential for carryover of residual nutrients into experimental cultures. Culture experiments were performed using a FLUOStar Omega 96-well plate reader using Sarstedt 96-well plates incubated at 30°C, shaking at 200 rpm.

E. coli PhnD = conditions: read-out: Kd (μM) PhnD Ec, cited from earlier work

NCCP(=O)(O)O [2-Aminoethylphosphonate, 2-aminoethylphosphonate]
Kd of AepX in words (S. stellulata AepX): nanomolar range
Kd (S. stellulata AepX): 0.023 ± 0.004 µM
Final growth yield (mean OD540 ± standard deviation), sole N source [1]: 0.535±0.039 OD540
Final growth yield (mean OD540 ± standard deviation), sole P source [1]: 1.050±0.018 OD540
Final growth yield (mean OD540 ± standard deviation), sole N source [2]: 0.239±0.008 OD540
Final growth yield (mean OD540 ± standard deviation), sole P source [2]: 0.748±0.019 OD540
Final growth yield (mean OD540 ± standard deviation), sole N source (Shimia marina (DSM26895)): 0.347±0.004 OD540
Final growth yield (mean OD540 ± standard deviation), sole P source (Shimia marina (DSM26895)): 0.827±0.013 OD540
Final growth yield (mean OD540 ± standard deviation), sole N source [3]: 0.487±0.020 OD540
Final growth yield (mean OD540 ± standard deviation), sole P source [3]: 0.869±0.094 OD540
Final growth yield (mean OD540 ± standard deviation), sole N source [4]: 0.816±0.080 OD540
Final growth yield (mean OD540 ± standard deviation), sole P source [4]: 0.980±0.005 OD540
Growth on 2AEP as sole P, sole N or sole N and sole P source [5]: capable of growth
Kd (E. coli PhnD): 0.05 to 0.1 µM

ammonium [NH4]
Final growth yield (mean OD540 ± standard deviation), sole N source [1]: 0.776±0.044 OD540
Final growth yield (mean OD540 ± standard deviation), sole N source [2]: 0.257±0.004 OD540
Final growth yield (mean OD540 ± standard deviation), sole N source (Shimia marina (DSM26895)): 0.397±0.035 OD540
Final growth yield (mean OD540 ± standard deviation), sole N source [4]: 0.680±0.016 OD540

NCP(=O)(O)O [Aminomethylphosphonate]
Kd (S. stellulata AepX; microscale thermophoresis, recombinant S. stellulata AepX, 22 °C): 4490 ± 808 µM
Kd (E. coli PhnD; E. coli PhnD, previous studies): 16.6 µM

orthophosphate [Pi]
Final growth yield (mean OD540 ± standard deviation), sole P source [1]: 0.90±0.018 OD540
Final growth yield (mean OD540 ± standard deviation), sole P source [2]: 1.100±0.037 OD540
Final growth yield (mean OD540 ± standard deviation), sole P source (Shimia marina (DSM26895)): 1.045±0.020 OD540
Final growth yield (mean OD540 ± standard deviation), sole P source [3]: 1.003±0.030 OD540
Final growth yield (mean OD540 ± standard deviation), sole P source [4]: 1.01±0.07 OD540
